Patent US20140206681A1, “BTK INHIBITORS” (priority 2013, published 2014)

Key:
[1] = target: T1, BTK enzyme (recombinant full-length BTK, hBTK) (Homo sapiens, UniProt Q06187); experiment: BTK enzyme activity assay, LANCE TR-FRET; type: biochemical; conditions: 50 pM hBTK, 2 μM biotin-A5-peptide, 25 μM ATP; 60 min compound & enzyme incubation; read-out: IC50 BTK activity value
T1 construct: recombinant protein from baculovirus-transfected Sf9 cells: full-length BTK, 6HIS-tag cleaved; 6HIS (cleaved yes); made in house; host or cells: baculovirus-transfected Sf9 cells
T1 sequence (Q06187 whole entry): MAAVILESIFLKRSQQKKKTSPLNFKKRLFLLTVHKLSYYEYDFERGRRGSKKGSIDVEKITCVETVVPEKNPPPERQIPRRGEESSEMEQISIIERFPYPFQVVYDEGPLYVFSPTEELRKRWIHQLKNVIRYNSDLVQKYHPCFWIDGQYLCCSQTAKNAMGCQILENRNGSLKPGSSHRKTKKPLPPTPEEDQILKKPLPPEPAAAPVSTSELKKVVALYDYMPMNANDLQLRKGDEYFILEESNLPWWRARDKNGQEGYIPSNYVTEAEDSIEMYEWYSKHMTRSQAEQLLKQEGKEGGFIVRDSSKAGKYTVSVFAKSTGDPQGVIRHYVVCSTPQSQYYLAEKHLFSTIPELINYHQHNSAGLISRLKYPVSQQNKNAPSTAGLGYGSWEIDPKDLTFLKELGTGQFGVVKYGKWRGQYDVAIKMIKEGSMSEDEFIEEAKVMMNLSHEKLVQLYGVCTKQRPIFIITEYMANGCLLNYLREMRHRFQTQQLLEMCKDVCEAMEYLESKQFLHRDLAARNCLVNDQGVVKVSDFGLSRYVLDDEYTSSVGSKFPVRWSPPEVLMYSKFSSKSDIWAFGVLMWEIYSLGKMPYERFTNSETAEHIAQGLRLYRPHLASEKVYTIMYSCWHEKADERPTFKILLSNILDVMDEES

[2] = system: HeLa cells; experiment: [3H]Adenosine uptake functional cellular assay; type: cell-based; conditions: Homo sapiens, HeLa, accumulation of [3H]adenosine into HeLa cells; compound range 10 μM to […]; read-out: Adenosine uptake inhibition IC50
Method in brief: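 Inhibition of adenosine uptake was measured in HeLa cells (ATCC CCL-2) by following accumulation of tritiated adenosine. Cells were kept overnight at 37° C. with 5% (v/v) CO2, then switched to 40 μL HBSS plus 5% (v/v) FBS. 20 μL of 500 nM [3H]adenosine was added, and uptake was counted on a Topcount NXT reader.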

| IC50 [1] [nM] | IC50 [2] [nM] | SMILES |
| --- | --- | --- |
| 1.8 | 4850 | COc1cc(C(=O)Nc2cc(C(F)(F)F)ccn2)c(Cl)cc1-c1nc([C@@H]2CC[C@H]3CCC(=O)N3C2)n2c(Cl)cnc(N)c12 [Example 218, 4-{8-amino-5-chloro-3-[(6R,8aS)-3-oxooctahydroindolizin-6-yl]imidazo[1,5-a]pyrazin-1-yl}-2-chloro-5-methoxy-N-[4-(trifluoromethyl)pyridin-2-yl]benzamide] |
| 0.28 | 726 | COc1cc(C(=O)Nc2cc(C(F)(F)F)ccn2)cc(F)c1-c1nc([C@@H]2CC[C@H]3CC(C)(C)C(=O)N3C2)n2ccnc(N)c12 [Example 219, 4-{8-amino-3-[(6R,8aS)-2,2-dimethyl-3-oxooctahydroindolizin-6-yl]imidazo[1,5-a]pyrazin-1-yl}-3-fluoro-5-methoxy-N-[4-(trifluoromethyl)pyridin-2-yl]benzamide] |
| 0.4 | 1520 | COc1cc(C(=O)Nc2cc(C(F)(F)F)ccn2)cc(F)c1-c1nc([C@@H]2CC[C@H]3CCC(=O)N3C2)n2c(F)cnc(N)c12 [Example 220, 4-{8-amino-5-fluoro-3-[(6R,8aS)-3-oxooctahydroindolizin-6-yl]imidazo[1,5-a]pyrazin-1-yl}-3-fluoro-5-methoxy-N-[4-(trifluoromethyl)pyridin-2-yl]benzamide] |
